Drawing on patent US20140303164A1, “THERAPEUTIC COMPOUNDS” (Gilead Sciences, Inc., priority 2013, published 2014), this text covers CC50 and inhibition for 13 compounds.

The nature of data set [1]: Test B: Cytotoxicity Assay. As to conditions: human, uninfected MT-4 cells, same protocol as Test A. It counts as cell-based. The method, boiled down: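 Uninfected MT-4 cells (2000 per well) incubated with diluted compound at 37° C. for 5 days, following the antiviral protocol without HIV-IIIb.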
For data set [2], the system named is HIV-IIIb. Put plainly: Test A: Antiviral Assay in MT4 Cells. It counts as cell-based, HIV-1. As to conditions: Human immunodeficiency virus 1, IIIB, MT4, 120 h; for inhibition at 0.2 µM: read-out: % inhibition at 0.2 μM; for inhibition at 2 µM: read-out: % inhibition at 2 μM. The procedure: Test A: Antiviral Assay in MT4 Cells
MT-4 cells were next mixed with HIV-IIIb at an m.o.i of 0.003 for 1 hour, after which time 35 μL of virus/cell mixture (2000 cells) was immediately added to each well containing 40 μL of diluted compound. The plates were then incubated at 37° C. for 5 days. […] Cell lysis was carried out by incubating at room temperature for 10 min and then chemiluminescence was read.

`Cc1nc(NS(C)(=O)=O)c2cccc(-c3ccc(C#CC(C)(C)O)nc3[C@H](Cc3cc(F)cc(F)c3)NC(=O)Cn3nc(C(F)(F)F)c4c3C(F)(F)[C@@H]3C[C@H]43)n12` [Compound 121, 2-((3bS,4aR)-5,5-difluoro-3-(trifluoromethyl)-3b,4,4a,5-tetrahydro-1H-cyclopropa[3,4]cyclopenta[1,2-c]pyrazol-1-yl)-N—((S)-2-(3,5-difluorophenyl)-1-(6-(3-hydroxy-3-methylbut-1-yn-1-yl)-3-(3-methyl-1-(methylsulfonamido)imidazo[1,5-a]pyridin-5-yl)pyridin-2-yl)ethyl)acetamide] displayed a CC50 at 5 days in data set [1] of 9.18 µM. For the same compound, in data set [2], the inhibition at 0.2 µM amounted to 46% and the inhibition at 2 µM came out at 98%.
With `Cn1ncc2c(Cl)ccc(-c3ccc(C#CC(C)(C)O)nc3[C@H](Cc3cc(F)cc(F)c3)NC(=O)Cn3nc(C(F)F)c4c3C(F)(F)[C@@H]3C[C@H]43)c21` [Compound 137C, N—((S)-1-(3-(4-chloro-1-methyl-1H-indazol-7-yl)-6-(3-hydroxy-3-methylbut-1-yn-1-yl)pyridin-2-yl)-2-(3,5-difluorophenyl)ethyl)-2-((3b-S,4aR)-3-(difluoromethyl)-5,5-difluoro-3b,4,4a,5-tetrahydro-1H-cyclopropa[3,4]cyclopenta[1,2-c]pyrazol-1-yl)acetamide], in data set [1], half-maximal cytotoxicity (CC50 at 5 days) was put at 7.88 µM. In data set [2], the inhibition at 0.2 µM is 93% and the inhibition at 2 µM was 100%.
In data set [1], `COC(=O)Nc1nn(CC(=O)N[C@@H](Cc2cc(F)cc(F)c2)c2nc(C#CC(C)(C)O)ccc2-c2ccc(Cl)c3c(NS(C)(=O)=O)nn(C)c23)c2c1[C@H]1C[C@H]1C2(F)F` [Compound 162, methyl ((3bS,4aR)-1-(2-(((S)-1-(3-(4-chloro-1-methyl-3-(methylsulfonamido)-1H-indazol-7-yl)-6-(3-hydroxy-3-methylbut-1-yn-1-yl)pyridin-2-yl)-2-(3,5-difluorophenyl)ethyl)amino)-2-oxoethyl)-5,5-difluoro-3b,4,4a,5-tetrahydro-1H-cyclopropa[3,4]cyclopenta[1,2-c]pyrazol-3-yl)carbamate] yielded a CC50 at 5 days of 22.4 µM. Also, in data set [2], the inhibition at 0.2 µM stood at 81% and the inhibition at 2 µM came to 81%.
As for `COCCC(=O)Nc1nn(C)c2c(-c3ccc(C#CC(C)(C)O)nc3[C@H](Cc3cc(F)cc(F)c3)NC(=O)Cn3nc(C(F)F)c4c3C(F)(F)[C@@H]3C[C@H]43)ccc(Cl)c12` [Compound 85, N-(4-chloro-7-(2-((S)-1-(2-((3b-S,4aR)-3-(difluoromethyl)-5,5-difluoro-3b,4,4a,5-tetrahydro-1H-cyclopropa[3,4]cyclopenta[1,2-c]pyrazol-1-yl)acetamido)-2-(3,5-difluorophenyl)ethyl)-6-(3-hydroxy-3-methylbut-1-yn-1-yl)pyridin-3-yl)-1-methyl-1H-indazol-3-yl)-3-methoxypropanamide], in data set [1], the cytotoxic concentration (CC50) at 5 days was determined as 7.85 µM. In addition, in data set [2], the inhibition at 0.2 µM amounted to 96% and the inhibition at 2 µM was determined as 96%.
`C[C@H](O)C(=O)Nc1nn(C)c2c(-c3ccc(C#CC(C)(C)O)nc3[C@H](Cc3cc(F)cc(F)c3)NC(=O)Cn3nc(C(F)F)c4c3C(F)(F)[C@@H]3C[C@H]43)ccc(Cl)c12` [Compound 103, (S)—N-(4-chloro-7-(2-((S)-1-(2-((3bS,4aR)-3-(difluoromethyl)-5,5-difluoro-3b,4,4a,5-tetrahydro-1H-cyclopropa[3,4]cyclopenta[1,2-c]pyrazol-1-yl)acetamido)-2-(3,5-difluorophenyl)ethyl)-6-(3-hydroxy-3-methylbut-1-yn-1-yl)pyridin-3-yl)-1-methyl-1H-indazol-3-yl)-2-hydroxypropanamide] gave a CC50 at 5 days in data set [1] of 6.79 µM. For the same compound, in data set [2], the inhibition at 0.2 µM amounted to 100% and the inhibition at 2 µM stood at 100%.
On to `Cn1nc(N)c2cccc(-c3ccc(C#CC(C)(C)O)nc3[C@H](Cc3cc(F)cc(F)c3)NC(=O)Cn3nc(C(F)(F)F)c4c3C(F)(F)[C@@H]3C[C@H]43)c21` [Compound 25, N—((S)-1-(3-(3-amino-1-methyl-1H-indazol-7-yl)-6-(3-hydroxy-3-methylbut-1-yn-1-yl)pyridin-2-yl)-2-(3,5-difluorophenyl)ethyl)-2-((3b-S,4aR)-5,5-difluoro-3-(trifluoromethyl)-3b,4,4a,5-tetrahydro-1H-cyclopropa[3,4]cyclopenta[1,2-c]pyrazol-1-yl)acetamide], for which the CC50 at 5 days in data set [1] is 9.14 µM. In data set [2], the inhibition at 0.2 µM was found to be 89% and the inhibition at 2 µM was 89%.
On to `CC(C)(O)C#Cc1ncc(-c2ccc(F)c(C(N)=O)c2)c([C@H](Cc2cc(F)cc(F)c2)NC(=O)Cn2nc(C(F)(F)F)c3c2C(F)(F)[C@@H]2C[C@H]32)n1` [Compound 23B, 5-(4-((S)-1-(2-((3bS,4aR)-5,5-difluoro-3-(trifluoromethyl)-3b,4,4a,5-tetrahydro-1H-cyclopropa[3,4]cyclopenta[1,2-c]pyrazol-1-yl)acetamido)-2-(3,5-difluorophenyl)ethyl)-2-(3-hydroxy-3-methylbut-1-yn-1-yl)pyrimidin-5-yl)-2-fluorobenzamide], for which the CC50 at 5 days in data set [1] was found to be 7.62 µM. Besides, in data set [2], the inhibition at 0.2 µM was 83% and the inhibition at 2 µM worked out at 88%.
Regarding `Cn1nc(NS(C)(=O)=O)c2c(Cl)ccc(-c3ccc(C#CC(C)(C)O)nc3[C@H](Cc3cccc(F)c3)NC(=O)Cn3nc(C(F)(F)F)c4c3C(F)(F)[C@@H]3C[C@H]43)c21` [Compound 187G, N—((S)-1-(3-(4-chloro-1-methyl-3-(methylsulfonamido)-1H-indazol-7-yl)-6-(3-hydroxy-3-methylbut-1-yn-1-yl)pyridin-2-yl)-2-(3-fluorophenyl)ethyl)-2-((3b-S,4aR)-5,5-difluoro-3-(trifluoromethyl)-3b,4,4a,5-tetrahydro-1H-cyclopropa[3,4]cyclopenta[1,2-c]pyrazol-1-yl)acetamide], in data set [1], the midpoint of cytotoxicity, the CC50 at 5 days, lay at 19.8 µM. Further, in data set [2], the inhibition at 0.2 µM turned out to be 84% and the inhibition at 2 µM came to 84%.
`CC(C)(O)C#Cc1ccc(-c2ccc3[nH]nc(N)c3c2)c([C@H](Cc2cc(F)cc(F)c2)NC(=O)Cn2nc(C(F)(F)F)c3c2C(F)(F)[C@@H]2C[C@H]32)n1` [Compound 46, N—((S)-1-(3-(3-amino-1H-indazol-5-yl)-6-(3-hydroxy-3-methylbut-1-yn-1-yl)pyridin-2-yl)-2-(3,5-difluorophenyl)ethyl)-2-((3b-S,4aR)-5,5-difluoro-3-(trifluoromethyl)-3b,4,4a,5-tetrahydro-1H-cyclopropa[3,4]cyclopenta[1,2-c]pyrazol-1-yl)acetamide] showed a CC50 at 5 days in data set [1] of 10.5 µM. In data set [2], the inhibition at 0.2 µM is 87% and the inhibition at 2 µM was determined as 89%.
The matching figures for `Cn1nc(N)c2c(Cl)ccc(-c3ccc(C#CC(C)(C)O)nc3[C@H](Cc3cc(F)cc(F)c3)NC(=O)Cn3nc(C(F)(F)F)c4c3C(F)(F)[C@@H]3C[C@H]43)c21` [Compound 55C, N—((S)-1-(3-(3-amino-4-chloro-1-methyl-1H-indazol-7-yl)-6-(3-hydroxy-3-methylbut-1-yn-1-yl)pyridin-2-yl)-2-(3,5-difluorophenyl)ethyl)-2-((3b-S,4aR)-5,5-difluoro-3-(trifluoromethyl)-3b,4,4a,5-tetrahydro-1H-cyclopropa[3,4]cyclopenta[1,2-c]pyrazol-1-yl)acetamide]: 9.56 µM, 92% and 92%.
As to `Cn1nc(NS(C)(=O)=O)c2c(Cl)ccc(-c3ccc(C#CC(C)(C)O)nc3[C@H](Cc3cc(F)cc(F)c3)NC(=O)Cn3nc4c(c3Cl)[C@H]3C[C@H]3C4(F)F)c21` [Compound 140M, N—((S)-1-(3-(4-chloro-1-methyl-3-(methylsulfonamido)-1H-indazol-7-yl)-6-(3-hydroxy-3-methylbut-1-yn-1-yl)pyridin-2-yl)-2-(3,5-difluorophenyl)ethyl)-2-((3b-S,4aR)-3-chloro-5,5-difluoro-3b,4,4a,5-tetrahydro-2H-cyclopropa[3,4]cyclopenta[1,2-c]pyrazol-2-yl)acetamide], the midpoint of cytotoxicity in data set [1], the CC50 at 5 days, lay at 20.4 µM. For the same compound, in data set [2], the inhibition at 0.2 µM stood at 98% and the inhibition at 2 µM stood at 98%.
`Cn1nc(NS(C)(=O)=O)c2c(Cl)ccc(-c3ccc(C#CC(C)(O)C(F)F)nc3[C@H](Cc3cc(F)cc(F)c3)NC(=O)Cn3nc(C(F)(F)F)c4c3C(F)(F)[C@@H]3C[C@H]43)c21` (stereo partly drawn) [Compound 157G, N-((1S)-1-(3-(4-chloro-1-methyl-3-(methylsulfonamido)-1H-indazol-7-yl)-6-(4,4-difluoro-3-hydroxy-3-methylbut-1-yn-1-yl)pyridin-2-yl)-2-(3,5-difluorophenyl)ethyl)-2-((3b-S,4aR)-5,5-difluoro-3-(trifluoromethyl)-3b,4,4a,5-tetrahydro-1H-cyclopropa[3,4]cyclopenta[1,2-c]pyrazol-1-yl)acetamide] registered a CC50 at 5 days in data set [1] of 10.9 µM. For the same compound, in data set [2], the inhibition at 0.2 µM worked out at 87% and the inhibition at 2 µM was 87%.
For `CC(C)(O)C#Cc1ccc(-c2cccc3c(=O)[nH]ccc23)c([C@H](Cc2cc(F)cc(F)c2)NC(=O)Cn2nc(C(F)(F)F)c3c2C(F)(F)[C@@H]2C[C@H]32)n1` [Compound 24B, 2-((3bS,4aR)-5,5-difluoro-3-(trifluoromethyl)-3b,4,4a,5-tetrahydro-1H-cyclopropa[3,4]cyclopenta[1,2-c]pyrazol-1-yl)-N—((S)-2-(3,5-difluorophenyl)-1-(6-(3-hydroxy-3-methylbut-1-yn-1-yl)-3-(1-oxo-1,2-dihydroisoquinolin-5-yl)pyridin-2-yl)ethyl)acetamide], the cytotoxic concentration (CC50) at 5 days in data set [1] came to 5.92 µM. Moreover, in data set [2], the inhibition at 0.2 µM was found to be 78% and the inhibition at 2 µM was determined as 83%.

As a reminder, the CC50 is the concentration that lowers cell viability or growth by half. Usually inhibition stands for the share of the control response that was lost under treatment.
